The text below walks through data of patent US12071404B2, “Aza (indole)-, benzothiophene-, and benzofuran-3-sulfonamides” (UCB Pharma GmbH, priority 2016, dated 2024).

For assay [1], the target named is T1, GPR17 (Homo sapiens, UniProt Q13304). Description: Calcium mobilization functional assay (GPR17 Ca2+ assay). The assay is classed as cell-based. More on the design: host or cells: Flp-In T-REx CHO. Conditions: CHO hGPR17 cells, inhibition of 50 nM MDL29,951, Calcium 5 dye, FLIPR; read-out: Ca2+ assay pIC50 (converted). A digest of the protocol: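 pIC50 values were fitted with a 4-parameter logistic curve. They reflect test-compound inhibition of cytosolic Ca2+ release evoked by 50 nM MDL29,951, tracked as Calcium 5 fluorescence at room temperature. Cells were CHO Flp-In T-REx stably carrying human GPR17, induced with doxycycline 1 μg/mL for 16-20 h.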
T1 sequence (Q13304 whole entry): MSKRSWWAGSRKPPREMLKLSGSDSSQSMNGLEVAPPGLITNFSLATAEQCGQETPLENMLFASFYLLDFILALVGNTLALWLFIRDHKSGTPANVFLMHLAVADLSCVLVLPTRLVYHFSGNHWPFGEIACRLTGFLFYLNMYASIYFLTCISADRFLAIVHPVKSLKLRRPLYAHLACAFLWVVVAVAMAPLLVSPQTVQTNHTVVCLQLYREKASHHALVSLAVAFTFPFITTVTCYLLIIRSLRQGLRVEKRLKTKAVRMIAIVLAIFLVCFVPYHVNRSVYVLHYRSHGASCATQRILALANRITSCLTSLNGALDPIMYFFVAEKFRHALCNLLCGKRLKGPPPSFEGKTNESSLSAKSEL

For assay [2], the target named is T1, GPR17. Description: cAMP accumulation functional assay (HTRF, Schild analysis). The assay is classed as cell-based. More on the design: host or cells: Flp-In T-REx CHO. Conditions: CHO hGPR17 cells, Schild analysis vs MDL29,951, 5 μM forskolin, read-out: cAMP assay pA2 (converted). The gist of the method: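 Antagonist affinity (pA2) came from Schild plots of dose ratios, based on MDL29,951 concentration-response curves fitted by 4-parameter logistic. The read-out was HTRF cAMP in 5,000 doxycycline-induced CHO hGPR17 cells per well, with 30 min compound preincubation and 60 min stimulation, at room temperature in pH 7.4 buffer.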

As for `CS(=O)(=O)c1c(Cl)ccc2c(S(=O)(=O)Nc3cc(F)c(Cl)cc3F)c[nH]c12` [Compound I-261, 6-chloro-N-(4-chloro-2,5-difluorophenyl)-7-(methylsulfonyl)-1H-indole-3-sulfonamide], the IC50 on GPR17 [1] is 3.16 to 31.6 nM. Further, on GPR17 [2], the Kb is 3.16 to 31.6 nM.

With `O=S(=O)(Nc1cc(F)c(Cl)cc1F)c1c[nH]c2c(OCC(F)F)c(Cl)ccc12` [Compound I-262, 6-chloro-N-(4-chloro-2,5-difluorophenyl)-7-(2,2-difluoroethoxy)-1H-indole-3-sulfonamide], the IC50 on GPR17 [1] was 3.16 to 31.6 nM. The Kb on GPR17 [2] is less than 3.16 nM.

Take `O=S(=O)(Nc1cc(F)c(Cl)cc1F)c1c[nH]c2cc(Cl)c(F)cc12` [Compound I-263, 6-chloro-N-(4-chloro-2,5-difluorophenyl)-5-fluoro-1H-indole-3-sulfonamide]: the IC50 at GPR17 [1] is 3.16 to 31.6 nM. Also, the Kb on GPR17 [2] is 3.16 to 31.6 nM.

As to `COc1cnc(NS(=O)(=O)c2c[nH]c3cc(Cl)ccc23)c(OC)c1` [Compound I-264, 6-chloro-N-(3,5-dimethoxypyridin-2-yl)-1H-indole-3-sulfonamide], the IC50 on GPR17 [1] was more than 31.6 nM. In addition, the Kb at GPR17 [2] is more than 31.6 nM.

Turning to `O=C1NCc2cc(F)c(NS(=O)(=O)c3c[nH]c4cc(Cl)ccc34)cc21` [Compound I-265, 6-chloro-N-(6-fluoro-3-oxo-2,3-dihydro-1H-isoindol-5-yl)-1H-indole-3-sulfonamide], the IC50 at GPR17 [1] is 3.16 to 31.6 nM. Also, on GPR17 [2], the Kb is more than 31.6 nM.

As to `O=S(=O)(Nc1cc(F)c(OC(F)F)cc1F)c1c[nH]c2nc(Cl)ccc12` [Compound I-266, 6-chloro-N-[4-(difluoromethoxy)-2,5-difluorophenyl]-1H-pyrrolo[2,3-b]pyridine-3-sulfonamide], the IC50 on GPR17 [1] is less than 3.16 nM. Also, the Kb on GPR17 [2] was less than 3.16 nM.

As for `O=S(=O)(Nc1cc(F)c(OC(F)F)cc1F)c1c[nH]c2cc(Cl)ccc12` [Compound I-267, 6-chloro-N-[4-(difluoromethoxy)-2,5-difluorophenyl]-1H-indole-3-sulfonamide], the IC50 at GPR17 [1] is less than 3.16 nM. Moreover, at GPR17 [2], the Kb is less than 3.16 nM.

As to `Cc1cc(F)c(NS(=O)(=O)c2c[nH]c3nc(Cl)ccc23)cc1F` [Compound I-268, 6-chloro-N-(2,5-difluoro-4-methylphenyl)-1H-pyrrolo[2,3-b]pyridine-3-sulfonamide], the IC50 at GPR17 [1] was less than 3.16 nM. Besides, the Kb at GPR17 [2] was less than 3.16 nM.

As to `O=S(=O)(Nc1cc(F)c(C(F)(F)F)cc1F)c1c[nH]c2cc(Cl)ccc12` [Compound I-269, 6-chloro-N-[2,5-difluoro-4-(trifluoromethyl)phenyl]-1H-indole-3-sulfonamide], the IC50 at GPR17 [1] was less than 3.16 nM. In addition, the Kb on GPR17 [2] was less than 3.16 nM.

Regarding `Cc1cc(F)c(NS(=O)(=O)c2c[nH]c3cc(Cl)ccc23)cc1F` [Compound I-270, 6-chloro-N-(2,5-difluoro-4-methylphenyl)-1H-indole-3-sulfonamide], on GPR17 [1], the IC50 is less than 3.16 nM. Moreover, the Kb at GPR17 [2] is less than 3.16 nM.

Consider `O=S(=O)(Nc1cc(F)c(Cl)cc1F)c1c[nH]c2cc3c(cc12)OCO3` [Compound I-271, N-(4-chloro-2,5-difluorophenyl)-5H-[1,3]dioxolo[4,5-f]indole-7-sulfonamide], for which the IC50 at GPR17 [1] is less than 3.16 nM. For the same compound, the Kb at GPR17 [2] is less than 3.16 nM.

As for `COc1ccc2c(S(=O)(=O)Nc3cc(F)c(Br)cc3F)c[nH]c2n1` [Compound I-272, N-(4-bromo-2,5-difluorophenyl)-6-methoxy-1H-pyrrolo[2,3-b]pyridine-3-sulfonamide], the IC50 on GPR17 [1] is 3.16 to 31.6 nM. The Kb on GPR17 [2] was less than 3.16 nM.

Consider `O=S(=O)(Nc1ccc(OC(F)(F)F)cc1F)c1c[nH]c2nc(Cl)ccc12` [Compound I-273, 6-chloro-N-[2-fluoro-4-(trifluoromethoxy)phenyl]-1H-pyrrolo[2,3-b]pyridine-3-sulfonamide], for which the IC50 on GPR17 [1] is 3.16 to 31.6 nM. The Kb on GPR17 [2] was 3.16 to 31.6 nM.

As to `C#Cc1ccc(NS(=O)(=O)c2c[nH]c3cc(OC)ccc23)c(F)c1` [Compound I-274, N-(4-ethynyl-2-fluorophenyl)-6-methoxy-1H-indole-3-sulfonamide], on GPR17 [1], the IC50 was 3.16 to 31.6 nM. The Kb on GPR17 [2] is 3.16 to 31.6 nM.

As for `O=S(=O)(Nc1ccc(Br)c(Cl)n1)c1c[nH]c2cc(Cl)ccc12` [Compound I-275, N-(5-bromo-6-chloropyridin-2-yl)-6-chloro-1H-indole-3-sulfonamide], at GPR17 [1], the IC50 is 3.16 to 31.6 nM. In addition, on GPR17 [2], the Kb was 3.16 to 31.6 nM.

For the compound `O=S(=O)(Nc1ccc(OC(F)(F)F)cc1F)c1c[nH]c2cc(Cl)ccc12` [Compound I-276, 6-chloro-N-[2-fluoro-4-(trifluoromethoxy)phenyl]-1H-indole-3-sulfonamide], on GPR17 [1], the IC50 was 3.16 to 31.6 nM. For the same compound, on GPR17 [2], the Kb is 3.16 to 31.6 nM.

As for `N#Cc1ccc2c(S(=O)(=O)Nc3cc(F)c(Cl)cc3F)c[nH]c2c1` [Compound I-277, N-(4-chloro-2,5-difluorophenyl)-6-cyano-1H-indole-3-sulfonamide], the IC50 at GPR17 [1] was 3.16 to 31.6 nM. Also, the Kb at GPR17 [2] is less than 3.16 nM.

`O=S(=O)(Nc1ccc(Cl)cc1F)c1c[nH]c2nc(Br)ccc12` [Compound I-278, 6-bromo-N-(4-chloro-2-fluorophenyl)-1H-pyrrolo[2,3-b]pyridine-3-sulfonamide]: the IC50 on GPR17 [1] was 3.16 to 31.6 nM. The Kb at GPR17 [2] is less than 3.16 nM.

As for `Cc1cnc(NS(=O)(=O)c2c[nH]c3cc(Cl)ccc23)c(F)c1` [Compound I-279, 6-chloro-N-(3-fluoro-5-methylpyridin-2-yl)-1H-indole-3-sulfonamide], the IC50 at GPR17 [1] is 3.16 to 31.6 nM. On GPR17 [2], the Kb was 3.16 to 31.6 nM.

Regarding `O=S(=O)(Nc1ccc(I)cn1)c1c[nH]c2cc(Cl)ccc12` [Compound I-280, 6-chloro-N-(5-iodopyridin-2-yl)-1H-indole-3-sulfonamide], the IC50 on GPR17 [1] was 3.16 to 31.6 nM. Further, the Kb on GPR17 [2] was 3.16 to 31.6 nM.

With `COc1ccc2c(S(=O)(=O)Nc3cc(F)c(Cl)cc3F)c[nH]c2n1` [Compound I-281, N-(4-chloro-2,5-difluorophenyl)-6-methoxy-1H-pyrrolo[2,3-b]pyridine-3-sulfonamide], the IC50 on GPR17 [1] was 3.16 to 31.6 nM. The Kb on GPR17 [2] is 3.16 to 31.6 nM.

For the compound `N#Cc1ccc2c(S(=O)(=O)Nc3cc(F)c(OC(F)F)cc3F)c[nH]c2c1` [Compound I-282, 6-cyano-N-[4-(difluoromethoxy)-2,5-difluorophenyl]-1H-indole-3-sulfonamide], the IC50 on GPR17 [1] was 3.16 to 31.6 nM. Also, the Kb at GPR17 [2] was 3.16 to 31.6 nM.

Consider `C#Cc1ccc(NS(=O)(=O)c2c[nH]c3nc(OC)ccc23)c(F)c1` [Compound I-283, N-(4-ethynyl-2-fluorophenyl)-6-methoxy-1H-pyrrolo[2,3-b]pyridine-3-sulfonamide], for which, at GPR17 [1], the IC50 is 3.16 to 31.6 nM. Also, the Kb at GPR17 [2] was 3.16 to 31.6 nM.

For `O=C1OCc2cc(F)c(NS(=O)(=O)c3c[nH]c4nc(Cl)ccc34)cc21` [Compound I-284, 6-chloro-N-(6-fluoro-3-oxo-1,3-dihydro-2-benzofuran-5-yl)-1H-pyrrolo[2,3-b]pyridine-3-sulfonamide], the IC50 on GPR17 [1] was 3.16 to 31.6 nM. The Kb on GPR17 [2] was more than 31.6 nM.

As to `COc1ccc2c(S(=O)(=O)Nc3cc(F)c(Br)cc3F)c[nH]c2c1` [Compound I-285, N-(4-bromo-2,5-difluorophenyl)-6-methoxy-1H-indole-3-sulfonamide], the IC50 on GPR17 [1] was less than 3.16 nM. Moreover, the Kb on GPR17 [2] was less than 3.16 nM.

For the compound `COc1cc(C#N)c(F)cc1NS(=O)(=O)c1c[nH]c2cc(Cl)ccc12` [Compound I-286, 6-chloro-N-(4-cyano-5-fluoro-2-methoxyphenyl)-1H-indole-3-sulfonamide], the IC50 at GPR17 [1] is less than 3.16 nM. Further, at GPR17 [2], the Kb is less than 3.16 nM.

For `COc1ccc2c(S(=O)(=O)Nc3ccc(C(F)(F)F)cc3F)c[nH]c2c1` [Compound I-287, N-(2-fluoro-4-(trifluoromethyl)phenyl)-6-methoxy-1H-indole-3-sulfonamide], the IC50 on GPR17 [1] was less than 3.16 nM. Also, the Kb at GPR17 [2] is 3.16 to 31.6 nM.

Consider `COc1ccc2c(S(=O)(=O)Nc3cc(F)c(C#N)cc3OC)c[nH]c2c1` [Compound I-288, N-(4-cyano-5-fluoro-2-methoxyphenyl)-6-methoxy-1H-indole-3-sulfonamide], for which the IC50 at GPR17 [1] was less than 3.16 nM. Besides, the Kb at GPR17 [2] is 3.16 to 31.6 nM.

For the compound `COc1cc(C#N)c(F)cc1NS(=O)(=O)c1c[nH]c2c1ccc1ccccc12` [Compound I-289, N-(4-cyano-5-fluoro-2-methoxyphenyl)-1H-benzo[g]indole-3-sulfonamide], the IC50 on GPR17 [1] was less than 3.16 nM. Also, the Kb at GPR17 [2] is less than 3.16 nM.

Regarding `O=S(=O)(Nc1ncc(Cl)cc1F)c1c[nH]c2cc(Br)ccc12` [Compound I-290, 6-Bromo-N-(5-chloro-3-fluoropyridin-2-yl)-1H-indole-3-sulfonamide], the IC50 at GPR17 [1] is less than 3.16 nM. Further, the Kb on GPR17 [2] was less than 3.16 nM.

As for `COc1ccc2c(S(=O)(=O)Nc3cc(F)c(C#N)cc3F)c[nH]c2c1` [Compound I-291, N-(4-cyano-2,5-difluorophenyl)-6-methoxy-1H-indole-3-sulfonamide], the IC50 on GPR17 [1] was less than 3.16 nM. For the same compound, on GPR17 [2], the Kb was less than 3.16 nM.

Take `COc1cc(C#N)c(F)cc1NS(=O)(=O)c1c[nH]c2nc(Cl)ccc12` [Compound I-292, 6-chloro-N-(4-cyano-5-fluoro-2-methoxyphenyl)-1H-pyrrolo[2,3-b]pyridine-3-sulfonamide]: the IC50 at GPR17 [1] was 3.16 to 31.6 nM. On GPR17 [2], the Kb was 3.16 to 31.6 nM.

With `COc1ccc2c(S(=O)(=O)Nc3ccc(Br)cc3F)c[nH]c2c1` [Compound I-293, N-(4-bromo-2-fluorophenyl)-6-methoxy-1H-indole-3-sulfonamide], at GPR17 [1], the IC50 was 3.16 to 31.6 nM. In addition, at GPR17 [2], the Kb was 3.16 to 31.6 nM.
